The text below walks through data of paper PMC9248008, “Mechanistic Studies of a Skatole-Forming Glycyl Radical Enzyme Suggest Reaction Initiation via Hydrogen Atom Transfer” (Journal of the American Chemical Society, 2022).

Experiment [1] has as its target T1, Ou IAD (indoleacetate decarboxylase from Olsenella uli) (Olsenella uli, UniProt E1QXZ2).
T1 construct: gene Olsu_0124; purified; glycyl radical installed by Ou IAD-AE with SAM; catalytic Gly853 and Cys500; tags and host only in supplement
The experiment can be described thus: inhibition in assays with I3A. In kind it is biochemical. The following applies: partial competitive inhibitor versus I3A, not consumed.

Experiment [2] has as its target T2, Cs HPAD (hydroxyphenylacetate decarboxylase) (Clostridium scatologenes, UniProt Q38HX4).
T2 construct: gene csdB; glycyl radical enzyme; residues Cys503, Glu505, Glu637; with 4-hydroxyphenylacetate decarboxylase small subunit
The experiment can be described thus: p-cresol formation, deuterium incorporation in D2O. In kind it is biochemical. The following applies: mere turnover.

The structures appear in SMILES notation.

T1 sequence (E1QXZ2 entry or part of it): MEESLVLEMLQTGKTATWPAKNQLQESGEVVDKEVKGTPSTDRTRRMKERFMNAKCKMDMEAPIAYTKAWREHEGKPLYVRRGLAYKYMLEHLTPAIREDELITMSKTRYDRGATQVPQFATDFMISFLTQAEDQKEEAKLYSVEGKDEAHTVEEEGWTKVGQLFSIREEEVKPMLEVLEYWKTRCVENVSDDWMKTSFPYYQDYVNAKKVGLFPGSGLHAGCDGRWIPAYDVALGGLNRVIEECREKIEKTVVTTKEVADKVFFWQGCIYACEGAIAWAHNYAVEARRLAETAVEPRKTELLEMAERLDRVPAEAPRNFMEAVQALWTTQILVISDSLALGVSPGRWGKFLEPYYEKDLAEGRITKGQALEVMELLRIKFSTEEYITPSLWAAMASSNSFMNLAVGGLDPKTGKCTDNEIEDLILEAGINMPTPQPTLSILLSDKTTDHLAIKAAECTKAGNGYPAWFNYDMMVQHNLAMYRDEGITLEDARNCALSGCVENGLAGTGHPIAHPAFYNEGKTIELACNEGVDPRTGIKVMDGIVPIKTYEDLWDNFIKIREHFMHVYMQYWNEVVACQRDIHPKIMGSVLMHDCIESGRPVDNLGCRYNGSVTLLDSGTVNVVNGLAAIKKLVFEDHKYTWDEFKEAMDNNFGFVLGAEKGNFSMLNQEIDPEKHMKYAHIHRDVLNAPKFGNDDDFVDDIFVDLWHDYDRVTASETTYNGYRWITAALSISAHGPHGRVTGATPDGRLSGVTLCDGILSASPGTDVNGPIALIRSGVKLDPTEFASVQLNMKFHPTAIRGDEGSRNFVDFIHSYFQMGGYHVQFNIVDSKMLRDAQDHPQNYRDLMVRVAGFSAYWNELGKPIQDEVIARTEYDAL
T2 sequence (Q38HX3 whole entry): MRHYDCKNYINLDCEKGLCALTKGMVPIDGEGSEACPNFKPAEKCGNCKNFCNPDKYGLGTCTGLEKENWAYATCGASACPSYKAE
T2 sequence (Q38HX4 whole entry): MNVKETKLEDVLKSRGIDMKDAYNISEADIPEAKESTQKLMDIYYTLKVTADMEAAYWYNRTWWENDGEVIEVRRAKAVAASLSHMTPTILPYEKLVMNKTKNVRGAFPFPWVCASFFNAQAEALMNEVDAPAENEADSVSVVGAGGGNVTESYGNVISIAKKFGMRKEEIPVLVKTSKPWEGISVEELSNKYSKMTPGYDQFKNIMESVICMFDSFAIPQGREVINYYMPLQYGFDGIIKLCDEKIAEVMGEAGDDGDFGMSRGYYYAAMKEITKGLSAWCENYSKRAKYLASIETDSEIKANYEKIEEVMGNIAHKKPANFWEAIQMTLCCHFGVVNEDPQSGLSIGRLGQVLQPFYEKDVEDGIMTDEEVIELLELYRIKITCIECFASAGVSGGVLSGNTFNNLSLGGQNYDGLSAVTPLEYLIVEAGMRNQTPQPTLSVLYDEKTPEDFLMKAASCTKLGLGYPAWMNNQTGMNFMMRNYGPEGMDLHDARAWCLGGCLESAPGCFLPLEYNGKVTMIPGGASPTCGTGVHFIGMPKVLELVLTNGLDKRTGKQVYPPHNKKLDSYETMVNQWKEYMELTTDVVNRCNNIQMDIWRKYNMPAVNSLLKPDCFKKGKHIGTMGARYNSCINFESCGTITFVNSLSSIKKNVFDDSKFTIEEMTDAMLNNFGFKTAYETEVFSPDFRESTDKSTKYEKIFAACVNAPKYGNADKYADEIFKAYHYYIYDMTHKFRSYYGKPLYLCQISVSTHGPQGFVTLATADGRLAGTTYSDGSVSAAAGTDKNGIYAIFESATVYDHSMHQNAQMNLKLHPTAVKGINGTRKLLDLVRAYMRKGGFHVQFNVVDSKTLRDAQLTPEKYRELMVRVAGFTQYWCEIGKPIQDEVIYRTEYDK

For the compound `CC(C(=O)O)c1c[nH]c2ccccc12` (racemic) [α-Me-I3A], the “inhibition in assays with I3A” value in experiment [1] (racemic) is on record as “Both compounds are partial competitive inhibitors in assays with I3A”.
With `O=C(O)Cc1ccc(O)cc1` [HPA, p-hydroxyphenylacetate], the “p-cresol formation, deuterium incorporation in D2O” value in experiment [2] is “When HPA and Cs HPAD were incubated with D2O, only the expected D1-p-cresol”.
Regarding `CC(C)(C(=O)O)c1c[nH]c2ccccc12` [α,α-Me2-I3A], the “inhibition in assays with I3A” value in experiment [1] is “Both compounds are partial competitive inhibitors in assays with I3A”.
